Data: patent US12258360B2, “Compositions and methods for treatment of anticancer-drug resistant cancers” (THE GEORGE WASHINGTON UNIVERSITY, priority 2020, dated 2025)

Assays:
IGROV1 CR cells = experiment: SRB cell viability, synergy with cisplatin (combination index); format: cell-based, human
Description: Given that And-1 phosphorylation was positively correlated with cisplatin resistance in OC according the Examples above, it was next determined whether And-1 phosphorylation contributes to cell survival in response to cisplatin. The cell viability to cisplatin in IGROV1, OV90 and mice ID80 cells overexpressed with FLAG-And-1-WT, FLAG-And-1-T826A and phosphomimetic FLAG-And-1-T826E was examined. In brief, cells were seeded in 96-well plate at a density of 3,000-5,000 cells per well and treated with indicated reagents for different concentration. Three days after treatment, the cell viability was measured by Sulforhodamine B (SRB) assay. The IC50 values and CI index were further determined by compusyn software. Every experiment was done in triplicate and repeated three times. […] To confirm And-1 was the primary target of ATR to promote platinum-resistance, the sensitivity of IGROV1 cells to cisplatin was examined using genetic analyses.
To determine whether And-1 inhibitors can overcome cisplatin resistance in OC cells, the synergy of And-1 inhibitors and cisplatin in IGROV1 CR cells was examined.

IGROV1 CR xenograft = format: in vivo, mice
Description: (§1) To evaluate the potency of And-1 inhibitors in vivo, IGROV1 or MCF7 cells were subcutaneously implanted into nude mice to form ovarian or breast tumors, respectively. In brief, 5-6 week-old female BALB/c athymic nude mice (CByJ.Cg-Foxn1nu/J, weighting 20-25 grams) were inoculated subcutaneously by injecting the OC cells, cisplatin resistant OC cells or breast cancer cells suspended in 100 μl ice-cold Matrigel/PBS (1:1, V:V; 5×10^6/mouse) into the dorsal flank of each mouse. When the average tumor volume reached 100-150 mm^3, the mice were randomized into subsequent experiment groups. For tumors treated with CH3 only, CH3 was given at 0 mg/kg, 20 mg/kg and 40 mg/kg via intraperitoneal injection twice a week for three weeks. […] The relative tumor volumes were calculated using the formula: a×(b^2)/2, for which a and b represented the longest and shortest diameters, respectively. During the drug treatment, the tumor volume and body weight were measured. Tumor samples were collected 4 days after final administration of the drug.
To assess the efficacy of combination therapy with And-1 inhibitor and cisplatin in vivo, an IGROV1 CR xenograft was treated with vehicle, And-1 inhibitors, cisplatin or combination of cisplatin and And-1 inhibitor via intraperitoneal injection.

And-1 polymerization = molecular target: T1, And-1 polymerization (Homo sapiens, UniProt O75717); experiment: FLAG-And-1 / HA-And-1 co-immunoprecipitation in U2OS cells; format: cell-based
T1 construct: expressed in transfected cells; host or cells: U2OS
T1 sequence (O75717 1-1129): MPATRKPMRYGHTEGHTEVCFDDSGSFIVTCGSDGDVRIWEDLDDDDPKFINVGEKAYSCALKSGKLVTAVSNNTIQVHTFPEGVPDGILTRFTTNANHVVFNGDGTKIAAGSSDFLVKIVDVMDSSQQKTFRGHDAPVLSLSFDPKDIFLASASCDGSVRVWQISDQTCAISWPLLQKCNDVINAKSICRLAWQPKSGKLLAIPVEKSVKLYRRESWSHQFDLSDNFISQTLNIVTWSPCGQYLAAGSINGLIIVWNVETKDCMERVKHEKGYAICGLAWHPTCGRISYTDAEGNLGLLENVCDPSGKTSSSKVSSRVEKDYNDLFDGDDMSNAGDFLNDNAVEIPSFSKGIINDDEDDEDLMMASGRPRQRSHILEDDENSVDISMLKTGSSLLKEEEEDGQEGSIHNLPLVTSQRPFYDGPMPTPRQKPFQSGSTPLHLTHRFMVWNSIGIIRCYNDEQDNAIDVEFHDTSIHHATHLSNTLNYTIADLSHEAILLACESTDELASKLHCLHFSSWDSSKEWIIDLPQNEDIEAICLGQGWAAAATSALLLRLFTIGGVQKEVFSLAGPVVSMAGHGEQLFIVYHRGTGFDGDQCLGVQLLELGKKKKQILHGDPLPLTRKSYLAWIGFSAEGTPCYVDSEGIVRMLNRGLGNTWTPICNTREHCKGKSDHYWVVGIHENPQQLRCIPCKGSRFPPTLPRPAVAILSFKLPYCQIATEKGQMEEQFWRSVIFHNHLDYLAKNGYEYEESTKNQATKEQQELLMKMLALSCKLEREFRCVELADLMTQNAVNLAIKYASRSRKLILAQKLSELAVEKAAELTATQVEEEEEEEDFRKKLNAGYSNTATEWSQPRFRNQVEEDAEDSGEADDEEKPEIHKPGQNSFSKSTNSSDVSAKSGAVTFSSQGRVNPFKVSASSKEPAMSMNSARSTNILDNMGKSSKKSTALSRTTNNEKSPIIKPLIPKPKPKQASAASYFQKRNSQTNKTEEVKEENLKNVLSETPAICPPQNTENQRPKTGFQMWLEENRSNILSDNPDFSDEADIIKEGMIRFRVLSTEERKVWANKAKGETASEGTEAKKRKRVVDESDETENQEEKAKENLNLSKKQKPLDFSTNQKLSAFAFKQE
Excerpt: Human And-1 exists as a homotrimer mediated by the SepB domain. To determine whether the interaction of CH3 with the WD40 domain can disrupt And-1 polymerization, resulting in exposure of CUL4B binding site on And-1 to CUL4B, both FLAG-And-1 and HA-And-1 were transfected into U2OS cells and the protein-protein interaction was examined in the presence of CH3.

MCF7 xenograft = format: in vivo, mice
Description: as §1

And-1 = molecular target: T2, And-1 (Homo sapiens, UniProt O75717); experiment: cellular thermal shift assay; format: binding; parameters: endogenous in cells; host or cells: IGROV1 CR; details: cells incubated 8 hours, compared to DMSO
T2 sequence (O75717 1-1129): T1 sequence (O75717 1-1129)
Description: To explore whether And-1 inhibitors directly bind to And-1, cellular thermal shift assays were performed in which a small molecule binds to a protein resulting in thermal stabilization of the protein. Briefly, cells were incubated with MG132 (10 μM), DHS, CH3, CH10 or DMSO for 8 hours. After washing with ice-cold PBS (suppled with Protease Inhibitor Cocktail), cells were aliquoted into PCR tubes (100 μL each) and then incubated at different temperatures (from 25° C. to 71° C.) for 4 minutes. After the cells were frozen and thawed twice using liquid nitrogen, proteins were isolated from the cells after centrifugation and incubated at 70° C. for 10 minutes for analysis by western blotting.

SMILES: OB1OCc2cc(/C=C/c3ccc(Cl)c(Cl)c3)ccc21 [CH3]
- synergy with cisplatin to inhibit cell proliferation (combination index) (IGROV1 CR cells): significant synergy
- And-1 expression in tumor samples (IHC) (IGROV1 CR xenograft; IGROV1 CR xenograft): suppressed expression of And-1
- tumor growth, combination with cisplatin vs cisplatin alone (IGROV1 CR xenograft; IGROV1 CR xenograft, cisplatin 8 mg/kg, CH3 20 mg/kg, BZA 2 mg/kg intraperitoneally, three weeks): excellent synergy in reducing tumor growth
- systemic toxicity of combination with cisplatin (body weight, H&E staining) (IGROV1 CR xenograft; mouse, in vivo): no obvious systemic toxicity or side effect
- interaction between HA-And-1 and FLAG-And-1 (And-1 polymerization): significantly decreased
- And-1 expression in tumor (IHC) (MCF7 xenograft; MCF7 xenograft): inhibited And-1 expression
- apoptosis in tumor (cleaved caspase-3 IHC) (MCF7 xenograft; MCF7 xenograft): induced apoptosis in tumor
- tumor growth (MCF7 xenograft; MCF7 xenograft, 20 or 40 mg/kg intraperitoneally, three weeks): significantly reduced tumor growth
- systemic toxicity (body weight, H&E staining of heart, liver, kidney and lung) (MCF7 xenograft; mouse, in vivo): systemic toxicity or obvious side effects were not observed
- thermal stabilization of And-1 protein at higher temperatures (And-1): stabilized
